Literature values in paper PMC8148172, “Evaluation of a Keratin 1 Targeting Peptide-Doxorubicin Conjugate in a Mouse Model of Triple-Negative Breast Cancer” (Pharmaceutics, 2021).

Key:
[1] = design: method as in PMID 27370248, PMID 16515518; details: as conjugate with circulating albumin
TNBC = tested on: TNBC; design: method as in PMID 28520410

COc1cccc2c1C(=O)c1c(O)c3c(c(O)c1C2=O)C[C@@](O)(/C(CO)=N/NC(=O)CCCCCN1C(=O)C=CC1=O)C[C@@H]3O[C@H]1C[C@H](N)[C@H](O)[C@H](C)O1 [Aldox, aldoxorubicin]
greater doses of Dox administered with minimal cardiotoxicity [1]: 3–4 ×

N- to C-terminal cyclized WXEAAYQkFL [cyclic analogue of 18-4]
targeting of TNBC relative to linear 18-4 peptide (TNBC): 2–3 fold
